B1: neocarzinostatin: clinically tested compound; positive reference compound (protein, UniProt P0A3R9 35-147, looked up)
Neocarzinostatin: AAPTATVTPSSGLSDGTVVKVAGAGLQAGTAYDVGQCAWVDTGVLACNPADFSSVTADANGSASTSLTVRRSFEGFLFDGTRWGTVDCTTAACQVGLSDAAGNGPEGVAISFN
modifications: enediyne chromophore

System: M109 tumor cells
Test: M109 solid tumor assay, five injections every two days (compared with neocarzinostatin and esperamicin A1)
Format: in vivo, female mice
Conditions: for T/C value: reference compounds, dose not given; for lifespan and tumor growth delay (in words): standard compounds, solid tumor
Description: This assay involves development of a solid tumor in a mouse by injection of M109 tumor cells under the skin of the animal. Solid tumors, typically elliptical in shape, rapidly develop on the flank of the mouse at the site of injection. Progress of the tumor is determined by its size which is measured across each axis of the elongated mass. Straightforward computations of tumor volume combined with an assumed density of 1 g per cc yields a weight estimate which is accepted as an indication of the progress of tumor growth. Increase in lifespan (T/C values) of the animal and delay in tumor growth (T-C) to reach a predetermined size (typically measured as weight of the tumor) are generally accepted by those of skill in the art as endpoint parameters. […] In the particular M109 assay described and used to test the novel dynemicin analogs, the median time to establish a baseline tumor burden (arbitrarily set at 1 g tumor) was 4 days.
A standard M109 solid tumor assay was set up to compare compound 5582 and 4229 with neocarzinostatin and esperamicin A1. Female mice were injected subcutaneously with 0.1 mL of a 0.2% brei of M109 tumor cells, prepared from 2 g tumor per 100 mL PBS (phosphate buffered saline).
In another test, compounds 5582 and 4229 were evaluated in mice implanted with M109 on a 5 injection per day every two days schedule beginning on day 1 post implant and compared with SC tumored mice.

Molecule	T/C value [days]	lifespan and tumor growth delay (in words)
esperamicin A1	11	increased lifespan and delay in tumor growth
B1	19.3	increased lifespan and delay in tumor growth

Reference: patent publication US5442065A, “Synthesis of tetrahydroquinoline enediyne core analogs of dynemicin” (Board of Regents, The University of Texas System, priority 1993, dated 1995)
